Assay results taken from patent US4889872A, “2,3,5,6-Tetrafluorobenzyl (+) 1r-trans-2,2-dimethyl-3-(2,2-dichlorovinyl)-cyclopropanecarboxylate” (priority 1987, dated 1989).
Read-outs that look alike come from different tables or passages of the source.

Assays:
[1] = test system: Musca domestica, resistant; experiment: Aerosol Test (knock-down effect on resistant flies, 30 m^3 room); assay type: in vivo
Source text: In each experiment, 3 wire cages each containing 20 resistant male Musca domestica are suspended in rooms of volume 30 m^3. The room is then sprayed using spray cans containing active compounds I, II, III and IV or active compound mixtures I+IV; II+IV; V+VI; V+VI+I and V+VI+II according to formulation Examples 1-9.
The amount of spray applied per spray can is 12.4 g. After spraying, the rooms are sealed and the action of the spray mist on the flies observed continuously through windows. The number of minutes after which 50 and 95% of the animals had fallen onto their backs (knock-down effect) is recorded. After a tesst duration of 1 hour, the percentage of knocked-downanimals is subsequently determined. The table below contains the values determined.

insects [2] = experiment: insecticidal / biological action (general statements); assay type: in vivo
rats [3] = conditions: cited from earlier work
Aedes aegypti = experiment: Vapor test (knock-down action on mosquitoes, electroevaporator ovens); assay type: in vivo; conditions: compound II 10 mg
Procedure: Small cellulose tablets containing active compound according to formulation examples Nos. 9 and 10 are placed on the hotplate of small electroevaporator ovens, producing temperatures of 130° and 160° C. The instruments ae connected to the mains via a socket and heated up in living rooms of equal size and equally equipped.
During the experiment, one window in the rooms remained open to the outside in the tilted position. Immediately after switching on the ovens, 2 wire baskets each containing 20 mosquitoes of the Aedes aegypti species, 3-4 days old, were hung in each room. The knock-down action on the mosquitoes was checked half or one hour later. After the oven had burnt for a longer period, fresh mosquitoes were again introduced in the same way into the rooms at certain times, and the activity was again tested after half or one hour. The temperature of the heating oven, the amounts of reactive compounds, the heating duration, the test time and the knockdown effect can be seen from the table below.
(%Knock-down: percentage of mosquitoes which have fallen onto their backs).
In the present test, active compounds I (according to the invention) and II ((-)1R-trans-isomer of fenfluthrin) were employed.

[4] = oral toxicity to mammals (LD50, rats); assay type: in vivo; conditions: rat, in vivo; male rats; oral
rats [5] = experiment: oral toxicity to mammals (LD50, rats); assay type: in vivo
flies = conditions: versus mixture of equal parts of the 2,3,5,6-tetrafluorobenzyl and 3,5,6-trifluorobenzyl ester; cited from earlier work
insects [6] = conditions: prior art, ester alone; cited from earlier work
[7] = compound I 10 mg, oven 130 °C, animals introduced after 0 h heating, residence 1 h
[8] = compound I 10 mg, oven 130 °C, animals introduced after 8 h heating, residence 1 h
[9] = compound I 10 mg, oven 130 °C, animals introduced after 26 h heating, residence 1 h
[10] = compound I 10 mg, oven 130 °C, animals introduced after 50 h heating, residence 1 h
[11] = compound I 10 mg, oven 160 °C, animals introduced after 0 h heating, residence 1 h
[12] = compound I 10 mg, oven 160 °C, animals introduced after 8 h heating, residence 1 h
[13] = compound I 10 mg, oven 160 °C, animals introduced after 26 h heating, residence 1 h
[14] = compound I 20 mg, oven 130 °C, animals introduced after 0 h heating, residence 1 h
[15] = compound I 20 mg, oven 130 °C, animals introduced after 8 h heating, residence 1 h
[16] = compound I 20 mg, oven 130 °C, animals introduced after 26 h heating, residence 1 h
[17] = compound I 20 mg, oven 130 °C, animals introduced after 50 h heating, residence 1 h
[18] = compound I 20 mg, oven 160 °C, animals introduced after 0 h heating, residence 1 h
[19] = compound I 20 mg, oven 160 °C, animals introduced after 8 h heating, residence 1 h
[20] = compound I 20 mg, oven 160 °C, animals introduced after 28 h heating, residence 1 h
[21] = compound I 30 mg, oven 130 °C, animals introduced after 0 h heating, residence 0.5 h
[22] = compound I 30 mg, oven 130 °C, animals introduced after 8 h heating, residence 0.5 h
[23] = compound I 30 mg, oven 130 °C, animals introduced after 26 h heating, residence 0.5 h
[24] = compound I 30 mg, oven 130 °C, animals introduced after 50 h heating, residence 0.5 h
[25] = compound I 30 mg, oven 160 °C, animals introduced after 0 h heating, residence 0.5 h
[26] = compound I 30 mg, oven 160 °C, animals introduced after 8 h heating, residence 0.5 h
[27] = compound I 30 mg, oven 160 °C, animals introduced after 28 h heating, residence 0.5 h
[28] = compound I 30 mg, oven 160 °C, animals introduced after 32 h heating, residence 0.5 h

SMILES | 50% knock-down after minutes ([1]; 5 mg/30 m^3) [min] | 95% knock-down after minutes ([1]; 5 mg/30 m^3) [min] | % knock-down after 1 hour ([1]; 5 mg/30 m^3, 1 hour) [%] | % knock-down (Aedes aegypti; [7]) [%] | % knock-down (Aedes aegypti; [8]) [%] | % knock-down (Aedes aegypti; [9]) [%] | % knock-down (Aedes aegypti; [10]) [%] | % knock-down (Aedes aegypti; [11]) [%] | % knock-down (Aedes aegypti; [12]) [%] | % knock-down (Aedes aegypti; [13]) [%] | % knock-down (Aedes aegypti; [14]) [%] | % knock-down (Aedes aegypti; [15]) [%] | % knock-down (Aedes aegypti; [16]) [%] | % knock-down (Aedes aegypti; [17]) [%] | % knock-down (Aedes aegypti; [18]) [%] | % knock-down (Aedes aegypti; [19]) [%] | % knock-down (Aedes aegypti; [20]) [%] | % knock-down (Aedes aegypti; [21]) [%] | % knock-down (Aedes aegypti; [22]) [%] | % knock-down (Aedes aegypti; [23]) [%] | also measured
CC1(C)C(C=C(Cl)Cl)C1C(=O)OCc1c(F)c(F)cc(F)c1F (racemic) [Active compound III, tetrafluorobenzyl cis/trans-2,2-dimethyl-3-(2,2-dichlorovinyl)-cyclopropanecarboxylate] | 38 | 52 | 97 |  |  |  |  |  |  |  |  |  |  |  |  |  |  |  |  |  | biological action (insects [2]; compared with tetrafluorobenzyl (+)1R-trans ester according to the invention): lower biological action; oral LD50 (rats [3]; male rats): 10 to 25 mg/kg
CC1(C)[C@H](C=C(Cl)Cl)[C@H]1C(=O)OCc1c(F)c(F)cc(F)c1F [Active compound I, 2,3,5,6-Tetrafluoro-benzyl (+)1R-trans-2,2-dimethyl-3-(2,2-dichlorovinyl)-cyclopropanecarboxylate] | 22 | 47 | 96 | 100 | 100 | 100 | 85 | 100 | 100 | 55 | 100 | 100 | 100 | 100 | 100 | 100 | 100 | 97 | 100 | 100 | 50% knock-down after minutes ([1]; 7.5 mg/30 m^3): 18 min; 95% knock-down after minutes ([1]; 7.5 mg/30 m^3): 33 min; % knock-down after 1 hour ([1]; 7.5 mg/30 m^3, 1 hour): 99%; % knock-down (Aedes aegypti; [24]): 92%; % knock-down (Aedes aegypti; [25]): 100%; % knock-down (Aedes aegypti; [26]): 100%; % knock-down (Aedes aegypti; [27]): 100%; % knock-down (Aedes aegypti; [28]): 100%; LD50 [4]: > 5000 mg/kg; therapeutic index (rats [5]; gap between effective dose for the pest and toxicity to mammals): surprisingly favorable therapeutic index; toxicity to mammals lower than that of pentafluorobenzyl (-)1R-trans ester (rats [5]; ratio versus pentafluorobenzyl (-)1R-trans-2,2-dimethyl-3-(2,2-dichlorovinyl)-cyclopropanecarboxylate): 50 times; toxicity to mammals lower than that of tetrafluorobenzyl cis/trans ester (rats [5]; ratio versus tetrafluorobenzyl cis/trans-2,2-dimethyl-3-(2,2-dichlorovinyl)-cyclopropanecarboxylate): more than 250 times; insecticidal action (insects [2]; compared to pentafluorobenzyl (-)1R-trans ester, at the same or an only slightly higher dosage): comparable insecticidal action
CC1(C)[C@H](C=C(Cl)Cl)[C@H]1C(=O)OCc1c(F)c(F)c(F)c(F)c1F [Active compound II, pentafluorobenzyl (-)1R-trans-2,2-dimethyl-3-(2,2-dichlorovinyl)-cyclopropanecarboxylate] | 19 | 37 | 99 | 100 | 100 | 100 | 97 | 100 | 100 | 40 | 100 | 100 | 100 | 95 | 100 | 100 | 92 | 65 | 100 | 97 | % knock-down (Aedes aegypti; [24]): 75%; % knock-down (Aedes aegypti; [25]): 45%; % knock-down (Aedes aegypti; [26]): 100%; % knock-down (Aedes aegypti; [27]): 92%; % knock-down (Aedes aegypti; [28]): 47%; oral LD50 (rats [3]; rats): 90 to 105 mg/kg
COP(=O)(OC)OC=C(Cl)Cl [Active compound IV, dichlorvos] |  |  |  |  |  |  |  |  |  |  |  |  |  |  |  |  |  |  |  |  | % knock-down after 1 hour ([1]; 124 mg/30 m^3, 1 hour): 22%
CC1(C)C(C=C(Cl)Cl)C1C(=O)OCc1c(F)c(F)c(F)c(F)c1F (stereo not shown) [pentafluorobenzyl ester] |  |  |  |  |  |  |  |  |  |  |  |  |  |  |  |  |  |  |  |  | amount that killed flies in the same time (flies): only a fifteenth of it killed flies in the same time
CC1(C)C(C=C(Cl)Cl)C1C(=O)OCc1c(F)c(F)cc(F)c1F (stereo not shown) [tetrafluorobenzyl ester] |  |  |  |  |  |  |  |  |  |  |  |  |  |  |  |  |  |  |  |  | insecticidal action (insects [6]): good insecticidal action
